Reference: patent publication US9265748B2, “Anhydrous and hemihydrate crystalline forms of an (R)-baclofen prodrug, methods of synthesis and methods of use” (XenoPort, Inc., priority 2011, dated 2016)

Experiments:
[1] = Solubility in crystallization solvents; format: physicochemical
Description: As used herein, the terms solution and suspension are used interchangeably and are meant to include embodiments in which a compound is in a solvent or solvent mixture regardless of solubility. […] In general, solvent combinations in which a compound is soluble within a first temperature range, and poorly soluble within a second temperature range, can be used in the crystallization methods disclosed herein. Mixtures of a “good” solvent and an “anti-solvent” can also be used with temperature dependent solubilization, i.e., dissolving at elevated temperature and crystallizing at room temperature. Examples of suitable “good” solvents, i.e., solvents in which (3R)-4-{[(1S)-2-methyl-1-(2-methylpropanoyloxyl)propoxy]carbonylamino}-3-(4-chlorophenyl)butanoic acid is soluble, include methanol, ethanol, isopropanol, acetone, methyl isobutyl ketone, tetrahydrofuran, 2-methyl tetrahydrofuran, 1,4-dioxane, 1,2-ethandiol, 1,2-propanediol, 2-methoxyethanol, 2-ethoxyethanol, and a mixture of any of the foregoing.

[2] = dosed either orally or directly into the colon of a mammal; cited from earlier work
reflux episodes = conditions: clinical trials (Castell et al.); cited from earlier work
TLESRs = conditions: humans; cited from earlier work
substance addiction = conditions: clinical trials: cocaine addiction, methamphetamine dependence, opioid dependence, alcohol craving and intake, nicotine use, drug addiction generally; cited from earlier work
[3] = test system: retching and vomiting induced by morphine; conditions: Suzuki et al.; cited from earlier work
[4] = test system: emesis induced by nicotine and motion; conditions: animal models (Chan et al.); cited from earlier work
[5] = test system: allodynia and hyperalgesia; conditions: doses lower than those required to produce sedation and impairment of motor activity; cited from earlier work
neuropathic pain = conditions: intrathecal; spinal-cord injury and multiple sclerosis, painful extremity paresthesias, sympathetically maintained pain; cited from earlier work
musculoskeletal pain = conditions: in vivo; cited from earlier work
[6] = Dynamic vapor sorption (hygroscopicity, water content); format: physicochemical; conditions: for water content at 50% relative humidity / water content at 95% relative humidity: dynamic vapor sorption
Description: In certain embodiments, crystalline (3R)-4-{[(1S)-2-methyl-1-(2-methylpropanoyloxyl)propoxy]carbonylamino}-3-(4-chlorophenyl)butanoic acid hemihydrate is hygroscopic. […] In certain embodiments, crystalline (3R)-4-{[(1S)-2-methyl-1-(2-methylpropanoyloxyl)propoxy]carbonylamino}-3-(4-chlorophenyl)butanoic acid hemihydrate comprises from about 2 wt %-about 3 wt % water. In certain embodiments, crystalline (3R)-4-{[(1S)-2-methyl-1-(2-methylpropanoyloxyl)propoxy]carbonylamino}-3-(4-chlorophenyl)butanoic acid hemihydrate contains about 2.15 wt % water at 50% relative humidity as measured by dynamic vapor sorption. In certain embodiments, crystalline (3R)-4-{[(1S)-2-methyl-1-(2-methylpropanoyloxyl)propoxy]carbonylamino}-3-(4-chlorophenyl)butanoic acid hemihydrate contains about 3 wt % water at 95% relative humidity as measured by dynamic vapor sorption.
In certain embodiments, crystalline (3R)-4-{[(1S)-2-methyl-1-(2-methylpropanoyloxyl)propoxy]carbonylamino}-3-(4-chlorophenyl)butanoic acid anhydrate contains less than about 0.05 wt % water at 50% relative humidity as measured by dynamic vapor sorption. In certain embodiments, crystalline (3R)-4-{[(1S)-2-methyl-1-(2-methylpropanoyloxyl)propoxy]carbonylamino}-3-(4-chlorophenyl)butanoic acid anhydrate contains less than about 0.1 wt % water at 95% relative humidity as measured by dynamic vapor sorption.

[7] = Thermogravimetric analysis (TG-FTIR); format: physicochemical; conditions: for temperature at which thermal decomposition began slowly: TG-FTIR, 10 K/min, increased strongly above 190° C.
Procedure: Thermogravimetric measurements were carried out with a Netzsch Thermo-Microbalance TG 209 coupled to a Bruker FTIR Spectrometer Vector 22. The sample was contained in sample pans with a pinhole, under a N2 atmosphere. The heating rate was set at 10 K/min. […]

## CC(C)C(=O)O[C@@H](OC(=O)NC[C@H](CC(=O)O)c1ccc(Cl)cc1)C(C)C [Compound 1, (3R)-4-{[(1S)-2-methyl-1-(2-methylpropanoyloxyl)propoxy]carbonylamino}-3-(4-chlorophenyl)butanoic acid]
[1]; methanol, ethanol, isopropanol, acetone, methyl isobutyl ketone, tetrahydrofuran, 2-methyl tetrahydrofuran, 1,4-dioxane, 1,2-ethandiol, 1,2-propanediol, 2-methoxyethanol, 2-ethoxyethanol
  solubility in "good" solvents: soluble
[1]; water, diethyl ether, diisopropyl ether, methyl t-butyl ether, toluene, chlorobenzene, alkanes, cyclohexane, methylcyclohexane
  solubility in "anti-solvents": poor solubility
[2]
  bioavailability as R-baclofen: high bioavailability
Reflux episodes
  effect on reflux episodes: reduce reflux episodes

## NC[C@H](CC(=O)O)c1ccc(Cl)cc1 [(R)-baclofen, (R)-4-amino-3-(4-chlorophenyl)butanoic acid]
TLESRs
  effect on TLESRs: reduce TLESRs
Substance addiction
  efficacy in treating addiction: effective

## NCC(CC(=O)O)c1ccc(Cl)cc1 (racemic) [baclofen, (±)-4-amino-3-(4-chlorophenyl)butanoic acid]
[3]
  effect on retching and vomiting induced by morphine: suppress the retching and vomiting
[4]
  effect on emesis induced by nicotine and motion: antagonize emesis
[5]
  effect on allodynia and hyperalgesia: inhibits allodynia and hyperalgesia
Neuropathic pain
  efficacy in treating neuropathic pain: effective
Musculoskeletal pain
  efficacy in treating migraine, tension-type headaches, low-back pain and radiculopathy: effective

## CC(C)C(=O)O[C@@H](OC(=O)NC[C@H](CC(=O)O)c1ccc(Cl)cc1)C(C)C [(3R)-4-{[(1S)-2-methyl-1-(2-methylpropanoyloxyl)propoxy]carbonylamino}-3-(4-chlorophenyl)butanoic acid anhydrate]
[6]
  hygroscopicity: not hygroscopic
  water content at 50% relative humidity: less than 0.05 wt %
  water content at 95% relative humidity: less than 0.1 wt %
[7]
  temperature at which thermal decomposition began slowly: about 170 °C
[7]; scan rate 10 K/min, N2 atmosphere
  weight loss up to 180° C.: very little weight loss

## (3R)-4-{[(1S)-2-methyl-1-(2-methylpropanoyloxyl)propoxy]carbonylamino}-3-(4-chlorophenyl)butanoic acid hemihydrate
[6]
  hygroscopicity: hygroscopic
  water content at 50% relative humidity: about 2.15 wt %
  water content at 95% relative humidity: about 3 wt %
[6]; above about 60% relative humidity
  hygroscopicity above about 60% relative humidity: slightly hygroscopic
[7]
  temperature at which thermal decomposition began slowly: about 170 °C
[7]; scan rate 10 K/min, N2 atmosphere, loss predominantly between 80° C. and 130° C., attributable to water
  weight loss up to 170° C.: about 2.1%
